Marks after values point to notes of the source that are not given here.
Test: Pharmacokinetics of LUM002 following single administration to rats
Format: in vivo, Sprague Dawley Rat
Conditions: for F: PO 20 mg/kg free acid, topmost estimate assuming 1 ng/mL over 24 h and dose-linear exposure
Experimental: To each rat either a single oral (PO; 20 mg/kg free acid) or a single intravenous (IV; 2 mg/kg free acid) dose of [^14Cl]LUM002 was administered. For PO and IV administration, the test substance was prepared with the adequate amount of water to reach a solution with a concentration of approximately 4 mg/g (PO) and 1 mg/g (IV). Oral administration was a gavage using a stomach tube and IV administration was a bolus injection into the tail vein. Exact doses administered to animals were calculated according to syringe weights.
The doses of radioactivity actually administered were determined by using standards prior to and after treatment of the animals. Blood—Animals were anaesthetized (Isoflurane) for blood sampling (3 animals/time point) and then euthanized by […]. Blood samples (maximal volume from each animal approx. 8 mL) were withdrawn from the abdominal aorta into containers containing a small amount of lithium heparin. and samples were centrifuged for 2 minutes at 1540 g. Aliquots (100 μL) of blood were used for hematocrit determination. Animals for the control groups (male and/or female) were used as predose animals for sampling of untreated biological samples (blood and plasma or liver, myocardium, kidneys only from male control animals). Plasma—To obtain plasma, blood samples were centrifuged for 10 minutes and stored cooled before final division.
Bioanalytical analysis—50 μL of plasma samples were placed into an 1.5 mL reaction tube. 5 μL methanol was added to each sample. For protein precipitation, 100 μL of the internal standard working solution (100 ng/mL of benzyl-13C6-LUM002 in acetonitrile) and 50 μL acetonitrile were added. In case of double blank samples, pure acetonitrile was added. Tubes were sealed and mixed thoroughly for 10 seconds. The tubes were centrifuged for 5 minutes at ≧3000 g. 50 μL of the clear supernatant was transferred into an autoinjector vial and were diluted with 50 μL deionized water. Analysis of samples was performed by using LC-MSMS (injection volume 50-75 μL) with a lower limit of quantification in the assay of 1 ng/mL for LUM002.

[1] = M, IV bolus injection 2 mg/kg free acid

CCCC[C@]1(CC)CS(=O)(=O)c2ccc(N(C)C)cc2[C@@H](c2cccc(NC(=O)N[C@@H]3O[C@H](COS(=O)(=O)[O-])[C@@H](O)[C@H](OCc4ccccc4)[C@H]3O)c2)[C@H]1O.CCO.O.[K+] [LUM002, potassium((2R,3R,4S,5R,6R)-4-benzyloxy-6-{3-[3-((3S,4R,5R)-3-butyl-7-dimethylamino-3-ethyl-4-hydroxy-1,1-dioxo-2,3,4,5-tetrahydro-1H-benzo[b]thiepin-5-yl)-phenyl]-ureido}-3,5-dihydroxy-tetrahydro-pyran-2-ylmethyl)sulphate ethanolate, hydrate]
F (F): <1.3^e %
Cmax [1]: 1.036 µg/mL
Vss [1]: 3.890 L/kg
t1/2 [1]: 10.7 h
Tmax (M, IV bolus injection 2 mg/kg free acid, extrapolated to t = 0): 0^c h
F (M): <1.3^e %
LUM002 dose systemically absorbed (rats, single PO 20 mg/kg vs IV 2 mg/kg free acid): Less than 2%

Source: US20140271734A1, “BILE ACID RECYCLING INHIBITORS FOR TREATMENT OF BARRETT'S ESOPHAGUS AND GASTROESOPHAGEAL REFLUX DISEASE” (LUMENA PHARMACEUTICALS, INC., priority 2013, published 2014)
